Data from ChEMBL document CHEMBL5335811, “2-Phenylcyclopropylmethylamine (PCPMA) as a privileged scaffold for central nervous system drug design” (Bioorg Med Chem Lett, 2024).

Experiments:
[1] = species: Homo sapiens; test: Selectivity ratio of Ki for sigma 2 receptor (unknown origin) to Ki for sigma 1 receptor assessed as inhibition of constant
[2] = biological target: Sigma non-opioid intracellular receptor 1 (Homo sapiens, UniProt Q99720); test: Binding affinity to sigma1 receptor (unknown origin) assessed as inhibition constant
[3] = biological target: Sigma intracellular receptor 2 (Homo sapiens, UniProt Q5BJF2); test: Binding affinity to sigma 2 receptor (unknown origin) assessed as inhibition constant
[4] = biological target: T1, Melatonin receptor type 1B (Homo sapiens, UniProt P49286); test: Binding affinity to MT2 receptor (unknown origin) assessed as inhibition constant
T1 sequence (P49286 whole entry): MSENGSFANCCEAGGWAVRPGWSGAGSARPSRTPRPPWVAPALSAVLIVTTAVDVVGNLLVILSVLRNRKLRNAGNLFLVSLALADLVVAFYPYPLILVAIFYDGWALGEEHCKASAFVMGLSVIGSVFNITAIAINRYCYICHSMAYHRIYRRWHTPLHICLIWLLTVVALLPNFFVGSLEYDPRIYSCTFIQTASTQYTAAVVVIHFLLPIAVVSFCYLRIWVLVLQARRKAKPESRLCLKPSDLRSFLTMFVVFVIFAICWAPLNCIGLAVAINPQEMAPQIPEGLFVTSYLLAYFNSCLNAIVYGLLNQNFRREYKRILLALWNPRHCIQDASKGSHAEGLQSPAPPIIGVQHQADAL

[5] = Binding affinity to MT1 receptor (unknown origin) assessed as inhibition constant; design: species or system Homo sapiens
[6] = biological target: T2, 5-hydroxytryptamine receptor 2A (Homo sapiens, UniProt P28223); test: Agonist activity at N-terminal HA-tagged human 5HT2A receptor; format: functional
[7] = biological target: T3, 5-hydroxytryptamine receptor 2C (Homo sapiens) (UniProt P28335); test: Agonist activity at 5HT2C receptor (unknown origin) at 10 uM relative to control; format: functional; settings: filed as agonist
T3 sequence (whole entry): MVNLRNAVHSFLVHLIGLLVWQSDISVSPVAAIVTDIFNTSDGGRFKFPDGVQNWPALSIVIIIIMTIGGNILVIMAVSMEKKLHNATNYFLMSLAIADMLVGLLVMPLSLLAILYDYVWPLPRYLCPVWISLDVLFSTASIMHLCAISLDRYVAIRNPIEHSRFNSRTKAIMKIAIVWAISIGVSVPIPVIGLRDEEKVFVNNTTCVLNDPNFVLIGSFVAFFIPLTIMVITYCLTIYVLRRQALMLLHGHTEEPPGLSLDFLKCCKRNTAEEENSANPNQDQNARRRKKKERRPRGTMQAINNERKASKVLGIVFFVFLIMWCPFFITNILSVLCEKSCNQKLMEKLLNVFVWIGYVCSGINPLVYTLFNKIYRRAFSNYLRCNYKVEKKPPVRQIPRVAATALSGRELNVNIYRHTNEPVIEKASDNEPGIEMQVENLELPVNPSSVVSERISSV

[8] = biological target: T4, 5-hydroxytryptamine receptor 2C (Homo sapiens, UniProt P28335); test: Agonist activity at 5HT2C receptor (unknown origin); format: functional
T4 sequence (P28335 whole entry): T3 sequence (whole entry)

[9] = biological target: T2, 5-hydroxytryptamine receptor 2A; test: Agonist activity at 5HT2A receptor (unknown origin) at 10 uM relative to control; format: functional
[10] = biological target: T5, 5-hydroxytryptamine receptor 2B (Homo sapiens, UniProt P41595); test: Agonist activity at 5HT2B (unknown origin); format: functional
[11] = biological target: T3, 5-hydroxytryptamine receptor 2C (Homo sapiens); test: Agonist activity at 5HT2C receptor (unknown origin) at 1 uM relative to control; format: functional; settings: filed as agonist
[12] = biological target: T5, 5-hydroxytryptamine receptor 2B; test: Agonist activity at 5HT2B (unknown origin) at 1 uM relative to control; format: functional
[13] = biological target: T2, 5-hydroxytryptamine receptor 2A; test: Agonist activity at N-terminal HA-tagged human 5HT2A receptor at 1 uM relative to control; format: functional
[14] = biological target: T2, 5-hydroxytryptamine receptor 2A; test: Agonist activity at human 5HT2A receptor; format: functional
[15] = species: Mus musculus; test: Antidepressant activity in Swiss albino mouse assessed as minimum effective dose by tail suspension test; format: functional; settings: read-out: MED
[16] = species: Mus musculus; test: Antidepressant activity in USV-induced Swiss albino mouse model of depression assessed as minimum effective dose; format: functional; settings: read-out: MED
[17] = Terminal elimination half life in Sprague-Dawley rat at 12 mg/kg, po; format: ADME, organism-based; settings: in vivo, read-out: beta t1/2 (converted)
[18] = Effect on emotional-affective response in USV-induced Sprague-Dawley rat assessed as reduction in ultrasonic vocalization; format: functional; settings: read-out: MED

T2 sequence (P28223 whole entry): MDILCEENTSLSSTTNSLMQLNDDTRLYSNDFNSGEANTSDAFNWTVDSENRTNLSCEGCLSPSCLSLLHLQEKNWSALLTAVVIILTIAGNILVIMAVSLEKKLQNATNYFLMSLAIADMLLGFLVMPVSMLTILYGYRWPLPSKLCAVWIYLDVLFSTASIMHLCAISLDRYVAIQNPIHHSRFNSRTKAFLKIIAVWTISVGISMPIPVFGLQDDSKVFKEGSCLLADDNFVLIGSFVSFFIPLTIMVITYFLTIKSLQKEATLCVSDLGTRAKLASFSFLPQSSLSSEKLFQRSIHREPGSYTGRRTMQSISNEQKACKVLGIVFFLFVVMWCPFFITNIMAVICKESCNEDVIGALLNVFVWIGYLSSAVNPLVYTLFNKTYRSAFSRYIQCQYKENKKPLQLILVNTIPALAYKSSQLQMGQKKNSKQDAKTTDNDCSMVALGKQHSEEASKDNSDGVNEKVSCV
T5 sequence (P41595 whole entry): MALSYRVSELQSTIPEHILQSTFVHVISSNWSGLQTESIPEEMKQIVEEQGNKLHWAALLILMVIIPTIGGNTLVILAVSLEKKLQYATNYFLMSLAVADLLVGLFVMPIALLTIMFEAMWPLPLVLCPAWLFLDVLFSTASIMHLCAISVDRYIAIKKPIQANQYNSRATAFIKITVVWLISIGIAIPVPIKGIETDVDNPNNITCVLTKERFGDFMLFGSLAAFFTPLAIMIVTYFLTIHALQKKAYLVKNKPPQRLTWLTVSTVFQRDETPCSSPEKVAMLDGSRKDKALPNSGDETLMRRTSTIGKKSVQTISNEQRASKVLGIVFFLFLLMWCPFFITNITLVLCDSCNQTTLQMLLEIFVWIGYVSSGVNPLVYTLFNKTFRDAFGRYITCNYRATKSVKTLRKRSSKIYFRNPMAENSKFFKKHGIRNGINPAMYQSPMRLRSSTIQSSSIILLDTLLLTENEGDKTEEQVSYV
Chain of Sigma non-opioid intracellular receptor 1 (Q99720 whole entry): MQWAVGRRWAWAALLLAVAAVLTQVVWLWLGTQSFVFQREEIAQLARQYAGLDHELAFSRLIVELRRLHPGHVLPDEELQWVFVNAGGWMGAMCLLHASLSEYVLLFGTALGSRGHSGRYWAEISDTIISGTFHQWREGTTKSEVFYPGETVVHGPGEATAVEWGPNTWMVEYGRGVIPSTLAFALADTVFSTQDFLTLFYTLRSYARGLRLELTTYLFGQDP
Chain of Sigma intracellular receptor 2 (Q5BJF2 whole entry): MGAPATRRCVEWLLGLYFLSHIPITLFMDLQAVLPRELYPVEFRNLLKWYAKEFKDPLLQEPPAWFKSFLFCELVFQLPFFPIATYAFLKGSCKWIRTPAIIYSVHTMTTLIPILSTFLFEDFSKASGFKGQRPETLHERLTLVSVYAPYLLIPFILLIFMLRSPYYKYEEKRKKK

Compound: COC(=O)[C@]1(c2ccccc2)C[C@@H]1CN1CCC(O)(c2ccc(Cl)cc2)CC1
- Selectivity ratio [1]: 5.5
- Ki [2]: 1.51 nM
- Ki [3]: 21.9 nM

Compound: CCC(=O)NC[C@@H]1C[C@H]1c1cccc2c1CCO2 [TASIMELTEON]
- Ki [4]: 0.07 nM
- Ki [5]: 0.3 nM

Compound: NC[C@@H]1C[C@@H]1c1cc(O)ccc1OCC1CC1
- EC50 [6]: 372 nM
- Emax [7]: 70%
- EC50 [8]: 9.3 nM
- Emax [9]: 18%

Compound: NC[C@@H]1C[C@@H]1c1cc(F)ccc1OCC1CC1
- EC50 [10]: 289 nM
- EC50 [6]: 894 nM
- EC50 [8]: 21 nM
- Emax [11]: 71%
- Emax [12]: 21%
- Emax [13]: 29%

Compound: CC1(C)Cc2cc(Cl)cc([C@H]3C[C@H]3CN)c2O1
- EC50 [14]: 600 nM

Compound: CCN(CC)C(=O)[C@@]1(c2ccccc2)C[C@H]1CN [LEVOMILNACIPRAN]
- minimal effective dose [15]: 2.5 mg/kg
- minimal effective dose [16]: 20 mg/kg
- half-life [17]: 12 h
- minimal effective dose [18]: 5 mg/kg
